In ChEMBL document CHEMBL4811228, “Design, Synthesis, and Activity Evaluation of Novel Acyclic Nucleosides as Potential Anticancer Agents In Vitro and In Vivo” (J Med Chem, 2021):
Calls of active or inactive are those of the source. The calls are words filed in the database; no cut-off is given here.

Experiments:
SW480 [1] = experiment: Binding affinity to 75kDa protein in human SW480 cells incubated for overnight by pull down based western blot analysis; format: cell-based
HCT-116 [2] = experiment: Antiproliferative activity against human HCT-116 cells assessed as reduction in cell viability incubated for 48 hrs by MTT assay; format: functional, cell-based; conditions: HCT-116, 48 h
SW480 [3] = experiment: Antiproliferative activity against human SW480 cells assessed as reduction in cell viability incubated for 48 hrs by MTT assay; format: functional, cell-based; conditions: SW480, 48 h
SW480 [4] = experiment: Binding affinity to 75kDa protein in human SW480 cells incubated for overnight by pull down based silver staining analysis; format: cell-based
HCT-116 [5] = experiment: Potency index, ratio of 5-FU IC50 to test compound IC50 for antiproliferative activity against human HCT-116 cells; format: functional
HeLa = experiment: Antiproliferative activity against human HeLa cells assessed as reduction in cell viability incubated for 48 hrs by MTT assay; format: functional, cell-based
A549 = experiment: Antiproliferative activity against human A549 cells assessed as reduction in cell viability incubated for 48 hrs by MTT assay; format: functional, cell-based; conditions: A549, 48 h
U-87 MG = experiment: Antiproliferative activity against human U-87 MG cells assessed as reduction in cell viability incubated for 48 hrs by MTT assay; format: functional, cell-based, U-87MG ATCC

C#CCCC1(CCN)N=N1
Activity (SW480 [1]): inactive

CCCCCCCCCC(CC(=O)NCCCCCNC(=O)CCCC[C@@H]1SC[C@@H]2NC(=O)N[C@@H]21)n1cnc2c(Cl)ncnc21 (mixture of isomers)
IC50 (HCT-116 [2]): 44.7 µM | IC50 (SW480 [3]): 45.2 µM | Activity (SW480 [4]): Active

OCCC(CO)n1cnc2c(Cl)ncnc21 (racemic)
IC50 (HCT-116 [2]): > 50 µM | IC50 (SW480 [3]): > 50 µM

CCCCCCCCCC(CCOCP(=O)(OCC)OCC)n1cnc2c(Cl)ncnc21 (racemic)
IC50 (HCT-116 [2]): 9.11 µM | IC50 (SW480 [3]): 4.79 µM

CCCCCCCCCCC(CCO)n1cnc2c(N)ncnc21 (racemic)
IC50 (HCT-116 [2]): 2.59 µM | Ratio IC50 (HCT-116 [5]): 4

CCCCCCCCCC(CCn1cc(-c2ccccc2)nn1)n1cnc2c(Cl)ncnc21 (racemic)
IC50 (HCT-116 [2]): 13.5 µM | IC50 (SW480 [3]): 9.92 µM

C=C(CO)C(c1ccccc1)n1cnc2c(Cl)ncnc21 (racemic)
IC50 (HCT-116 [2]): 33.3 µM | IC50 (SW480 [3]): 12.9 µM

C#CCCC1(CCNC(=O)CC(CCCCCCCCC)n2cnc3c(Cl)ncnc32)N=N1 (racemic)
IC50 (HCT-116 [2]): 21.5 µM | IC50 (SW480 [3]): 13 µM | Activity (SW480 [1]): Active | Activity (SW480 [4]): Active

C=C(CO)C(CCCCCCCC)n1cnc2c(Cl)ncnc21 (racemic)
IC50 (HCT-116 [2]): 19.4 µM | IC50 (SW480 [3]): 16.2 µM

CCCCCCCCCC(CCOCP(=O)(O)O)n1cnc2c(Cl)ncnc21 (racemic)
IC50 (HCT-116 [2]): > 50 µM | IC50 (SW480 [3]): > 50 µM

C=C(CO)C(CCCCCCCCC)n1cnc2c(Cl)ncnc21 (racemic)
IC50 (HCT-116 [2]): > 50 µM | IC50 (SW480 [3]): 27.6 µM

CCCCCCCCCC(CCN=[N+]=[N-])n1cnc2c(Cl)ncnc21 (racemic)
IC50 (HCT-116 [2]): 1.04 µM | IC50 (SW480 [3]): 1.2 µM

CCCCCCCCCC(CCCl)n1cnc2c(Cl)ncnc21 (racemic)
IC50 (HCT-116 [2]): 10.2 µM | IC50 (SW480 [3]): 7.18 µM

CCCCCCCCCC(CCOS(C)(=O)=O)n1cnc2c(Cl)ncnc21 (racemic)
IC50 (HCT-116 [2]): 5.44 µM | IC50 (SW480 [3]): 5.39 µM

O=c1[nH]cc(F)c(=O)[nH]1 [FLUOROURACIL]
IC50 (HCT-116 [2]): 10.8 µM | IC50 (SW480 [3]): 9.7 µM | IC50 (HeLa): > 50 µM | IC50 (A549): > 50 µM | IC50 (U-87 MG): > 50 µM
